From ChEMBL document CHEMBL2440080, “Synthesis and biological evaluation of novel acylhydrazone derivatives as potential antitumor agents” (Bioorg Med Chem, 2013)

Key:
[1] = Cytotoxicity against human EKVX cells after 48 hrs by sulforhodamine B assay; type: functional
TK-10 = experiment: Cytotoxicity against human TK10 cells after 48 hrs by sulforhodamine B assay; type: functional; conditions: TK-10, 48 h
SF-539 = experiment: Cytotoxicity against human SF539 cells after 48 hrs by sulforhodamine B assay; type: functional; conditions: SF-539, 48 h
SR = experiment: Cytotoxicity against human SR cells after 48 hrs by sulforhodamine B assay; type: functional
U-251 = experiment: Cytotoxicity against human U251 cells after 48 hrs by sulforhodamine B assay; type: functional; conditions: U-251, 48 h
RXF 393 = experiment: Cytotoxicity against human RXF393 cells after 48 hrs by sulforhodamine B assay; type: functional; conditions: RXF 393, 48 h
SNB-19 = experiment: Cytotoxicity against human SNB19 cells after 48 hrs by sulforhodamine B assay; type: functional; conditions: SNB-19, 48 h
UACC-62 = experiment: Cytotoxicity against human UACC62 cells after 48 hrs by sulforhodamine B assay; type: functional; conditions: UACC-62, 48 h
DU-145 = experiment: Cytotoxicity against human DU145 cells after 48 hrs by sulforhodamine B assay; type: functional; conditions: DU-145, 48 h
HOP-62 = experiment: Cytotoxicity against human HOP62 cells after 48 hrs by sulforhodamine B assay; type: functional; conditions: HOP-62, 48 h
OVCAR-4 = experiment: Cytotoxicity against human OVCAR4 cells after 48 hrs by sulforhodamine B assay; type: functional; conditions: OVCAR-4, 48 h
UO-31 = experiment: Cytotoxicity against human UO31 cells after 48 hrs by sulforhodamine B assay; type: functional; conditions: UO-31, 48 h
RPMI-8226 = experiment: Cytotoxicity against human RPMI8226 cells after 48 hrs by sulforhodamine B assay; type: functional; conditions: RPMI-8226, 48 h
LOX IMVI = experiment: Cytotoxicity against human LOXIMVI cells after 48 hrs by sulforhodamine B assay; type: functional
SN12C = experiment: Cytotoxicity against human SN12C cells after 48 hrs by sulforhodamine B assay; type: functional
NCI-H322M = experiment: Cytotoxicity against human NCI-H322M cells after 48 hrs by sulforhodamine B assay; type: functional
A498 = experiment: Cytotoxicity against human A498 cells after 48 hrs by sulforhodamine B assay; type: functional; conditions: A498, 48 h
Malme-3M = experiment: Cytotoxicity against human MALME-3M cells after 48 hrs by sulforhodamine B assay; type: functional
PC-3 = experiment: Cytotoxicity against human PC3 cells after 48 hrs by sulforhodamine B assay; type: functional; conditions: PC-3, 48 h
HL-60(TB) = experiment: Cytotoxicity against human HL-60(TB) cells after 48 hrs by sulforhodamine B assay; type: functional; conditions: HL-60, 48 h
SNB-75 = experiment: Cytotoxicity against human SNB75 cells after 48 hrs by sulforhodamine B assay; type: functional; conditions: SNB-75, 48 h
HOP-92 = experiment: Cytotoxicity against human HOP92 cells after 48 hrs by sulforhodamine B assay; type: functional; conditions: HOP-92, 48 h
SW-620 = experiment: Cytotoxicity against human SW620 cells after 48 hrs by sulforhodamine B assay; type: functional; conditions: SW-620, 48 h
CCRF-CEM = experiment: Cytotoxicity against human CCRF-CEM cells after 48 hrs by sulforhodamine B assay; type: functional
786-0 = experiment: Cytotoxicity against human 786-0 cells after 48 hrs by sulforhodamine B assay; type: functional; conditions: 786-0, 48 h
A549 = experiment: Cytotoxicity against human A549/ATCC cells after 48 hrs by sulforhodamine B assay; type: functional; conditions: A549, 48 h
SK-MEL-5 = experiment: Cytotoxicity against human SK-MEL-5 cells after 48 hrs by sulforhodamine B assay; type: functional; conditions: SK-MEL-5, 48 h
MDA-MB-435 = experiment: Cytotoxicity against human MDA-MB-435 cells after 48 hrs by sulforhodamine B assay; type: functional; conditions: MDA-MB-435, 48 h
IGROV-1 = experiment: Cytotoxicity against human IGROV1 cells after 48 hrs by sulforhodamine B assay; type: functional; conditions: IGROV-1, 48 h
CAKI-1 = experiment: Cytotoxicity against human CAKI-1 cells after 48 hrs by sulforhodamine B assay; type: functional; conditions: CAKI-1, 48 h
MDA-MB-231 = experiment: Cytotoxicity against human MDA-MB-231 cells after 48 hrs by sulforhodamine B assay; type: functional; conditions: MDA-MB-231, 48 h
[2] = Cytotoxicity against human Hs 578T cells after 48 hrs by sulforhodamine B assay; type: functional
ACHN = experiment: Cytotoxicity against human ACHN cells after 48 hrs by sulforhodamine B assay; type: functional
SK-OV-3 = experiment: Cytotoxicity against human SKOV3 cells after 48 hrs by sulforhodamine B assay; type: functional; conditions: SK-OV-3, 48 h
UACC-257 = experiment: Cytotoxicity against human UACC257 cells after 48 hrs by sulforhodamine B assay; type: functional; conditions: UACC-257, 48 h
NCI-H23 = experiment: Cytotoxicity against human NCI-H23 cells after 48 hrs by sulforhodamine B assay; type: functional; conditions: NCI-H23, 48 h
T47D = experiment: Cytotoxicity against human T47D cells after 48 hrs by sulforhodamine B assay; type: functional
NCI-H522 = experiment: Cytotoxicity against human NCI-H522 cells after 48 hrs by sulforhodamine B assay; type: functional; conditions: NCI-H522, 48 h
OVCAR-5 = experiment: Cytotoxicity against human OVCAR5 cells after 48 hrs by sulforhodamine B assay; type: functional; conditions: OVCAR-5, 48 h
OVCAR-8 = experiment: Cytotoxicity against human OVCAR8 cells after 48 hrs by sulforhodamine B assay; type: functional; conditions: OVCAR-8, 48 h
HT-29 = experiment: Cytotoxicity against human HT-29 cells after 48 hrs by sulforhodamine B assay; type: functional; conditions: HT-29, 48 h
SK-MEL-2 = experiment: Cytotoxicity against human SK-MEL-2 cells after 48 hrs by sulforhodamine B assay; type: functional; conditions: SK-MEL-2, 48 h
HCT-116 = experiment: Cytotoxicity against human HCT116 cells after 48 hrs by sulforhodamine B assay; type: functional; conditions: HCT-116, 48 h
HCT-15 = experiment: Cytotoxicity against human HCT15 cells after 48 hrs by sulforhodamine B assay; type: functional; conditions: HCT-15, 48 h
M14 = experiment: Cytotoxicity against human M14 cells after 48 hrs by sulforhodamine B assay; type: functional; conditions: M14, 48 h
SF-295 = experiment: Cytotoxicity against human SF295 cells after 48 hrs by sulforhodamine B assay; type: functional; conditions: SF-295, 48 h
NCI-H226 = experiment: Cytotoxicity against human NCI-H226 cells after 48 hrs by sulforhodamine B assay; type: functional; conditions: NCI-H226, 48 h
OVCAR-3 = experiment: Cytotoxicity against human OVCAR3 cells after 48 hrs by sulforhodamine B assay; type: functional; conditions: OVCAR-3, 48 h
MCF7 = experiment: Cytotoxicity against human MCF7 cells after 48 hrs by sulforhodamine B assay; type: functional; conditions: MCF7, 48 h
COLO 205 = experiment: Cytotoxicity against human COLO205 cells after 48 hrs by sulforhodamine B assay; type: functional; conditions: COLO 205, 48 h
KM12 = experiment: Cytotoxicity against human KM12 cells after 48 hrs by sulforhodamine B assay; type: functional; conditions: KM12, 48 h
MOLT-4 = experiment: Cytotoxicity against human MOLT4 cells after 48 hrs by sulforhodamine B assay; type: functional; conditions: MOLT-4, 48 h
BT-549 = experiment: Cytotoxicity against human BT549 cells after 48 hrs by sulforhodamine B assay; type: functional; conditions: BT-549, 48 h
SF-268 = experiment: Cytotoxicity against human SF268 cells after 48 hrs by sulforhodamine B assay; type: functional; conditions: SF-268, 48 h
HCC 2998 = experiment: Cytotoxicity against human HCC2998 cells after 48 hrs by sulforhodamine B assay; type: functional; conditions: HCC 2998, 48 h
SK-MEL-28 = experiment: Cytotoxicity against human SK-MEL-28 cells after 48 hrs by sulforhodamine B assay; type: functional; conditions: SK-MEL-28, 48 h
NCI-H460 = experiment: Cytotoxicity against human NCI-H460 cells after 48 hrs by sulforhodamine B assay; type: functional; conditions: NCI-H460, 48 h
NCI/ADR-RES = experiment: Cytotoxicity against human NCI/ADR-RES cells after 48 hrs by sulforhodamine B assay; type: functional
Mus musculus = experiment: Toxicity in athymic nude mouse assessed as survival at 400 mg/kg, ip measured after 2 weeks; type: organism-based; parameters: dose 400 mg/kg, route intraperitoneal; conditions: in vivo, 336 h

CCN(CC)c1ccc(/C=N/NC(=O)c2cccc(Nc3ccnc(C(F)(F)F)c3)c2)c(O)c1
GI50 [1]: 224 nM | GI50 (TK-10): 501 nM | GI50 (SF-539): 263 nM | GI50 (SR): 200 nM | GI50 (U-251): 200 nM | GI50 (RXF 393): 0.398 µM | GI50 (SNB-19): 339 nM | GI50 (UACC-62): 251 nM | GI50 (DU-145): 251 nM | GI50 (HOP-62): 251 nM | GI50 (OVCAR-4): 158 nM | GI50 (UO-31): 166 nM | GI50 (RPMI-8226): 158 nM | GI50 (LOX IMVI): 178 nM | GI50 (SN12C): 309 nM | GI50 (NCI-H322M): 200 nM | GI50 (A498): 479 nM | GI50 (Malme-3M): 339 nM | GI50 (PC-3): 741 nM | GI50 (HL-60(TB)): 316 nM | GI50 (SNB-75): 257 nM | GI50 (HOP-92): 1000 nM | GI50 (SW-620): 324 nM | GI50 (CCRF-CEM): 141 nM | GI50 (786-0): 240 nM | GI50 (A549): 389 nM | GI50 (SK-MEL-5): 224 nM | GI50 (MDA-MB-435): 339 nM | GI50 (IGROV-1): 200 nM | GI50 (CAKI-1): 200 nM | GI50 (MDA-MB-231): 316 nM | GI50 [2]: 182 nM | GI50 (ACHN): 245 nM | GI50 (SK-OV-3): 407 nM | GI50 (UACC-257): 275 nM | GI50 (NCI-H23): 646 nM | GI50 (T47D): 631 nM | GI50 (NCI-H522): 407 nM | GI50 (OVCAR-5): 501 nM | GI50 (OVCAR-8): 398 nM | GI50 (HT-29): 339 nM | GI50 (SK-MEL-2): 407 nM | GI50 (HCT-116): 126 nM | GI50 (HCT-15): 126 nM | GI50 (M14): 229 nM | GI50 (SF-295): 324 nM | GI50 (NCI-H226): 372 nM | GI50 (OVCAR-3): 794 nM | GI50 (MCF7): 245 nM | GI50 (COLO 205): 282 nM | GI50 (KM12): 398 nM | GI50 (MOLT-4): 195 nM | GI50 (BT-549): 501 nM | GI50 (SF-268): 100 nM | GI50 (HCC 2998): 182 nM | GI50 (SK-MEL-28): 115 nM | GI50 (NCI-H460): 200 nM | GI50 (NCI/ADR-RES): 1 µM

COc1ccc(C(=O)N/N=C/c2ccc(O)cc2O)cc1Nc1ccnc(C(F)(F)F)c1
GI50 [1]: 398 nM | GI50 (TK-10): 501 nM | GI50 (SR): 158 nM | GI50 (U-251): 398 nM | GI50 (RXF 393): 10 µM | GI50 (UACC-62): 501 nM | GI50 (DU-145): 631 nM | GI50 (HOP-62): 501 nM | GI50 (OVCAR-4): 631 nM | GI50 (RPMI-8226): 2510 nM | GI50 (LOX IMVI): 501 nM | GI50 (NCI-H322M): 501 nM | Activity (Mus musculus): Non-toxic | GI50 (PC-3): 631 nM | GI50 (HL-60(TB)): 316 nM | GI50 (SNB-75): 794 nM | GI50 (HOP-92): 316 nM | GI50 (CCRF-CEM): 251 nM | GI50 (IGROV-1): 631 nM | GI50 (CAKI-1): 631 nM | GI50 (ACHN): 2510 nM | GI50 (T47D): 794 nM | GI50 (OVCAR-8): 794 nM | GI50 (HCT-116): 251 nM | GI50 (HCT-15): 2510 nM | GI50 (M14): 794 nM | GI50 (SF-295): 794 nM | GI50 (OVCAR-3): 316 nM | GI50 (KM12): 1580 nM | GI50 (MOLT-4): 398 nM | GI50 (BT-549): 501 nM | GI50 (SF-268): 316 nM | GI50 (NCI-H460): 3160 nM | GI50 (NCI/ADR-RES): 7.94 µM
